Experiments:
[1] = test system: intracellular free calcium; details: cited from earlier work
[2] = test system: neurotoxic effects of gp120; details: on cells and in animals; cited from earlier work
rats = assay: Intrathecal VIP in rats; assay type: in vivo, rat
Method: Each animal was treated with VIP or Ringer's solution in a counterbalanced fashion. […] At a dose of 25 ug VIP/5 ul (5 ug/ul), there were 4 of 6 documented deaths. At 60 ug VIP/5 ul (12 ug/ul), there were 3 of 5 documented deaths.

[3] = test system: gp120 binding to brain tissue; details: in vitro; cited from earlier work
HIV = details: in vitro; cited from earlier work

Molecule	Effect on gp 120-CD4 induced increase of intracellular free calcium [1]	Effect on the neurotoxic effects of gp120 [2]	Documented deaths (rats; 25 ug VIP/5 ul (5 ug/ul) IT)	Documented deaths (rats; 60 ug VIP/5 ul (12 ug/ul) IT)	Morbidity (rats; IT VIP)	Symptoms shown by all VIP-treated animals (rats; IT VIP, all doses)	Concentration shown to be effective to induce the desired symptoms (rats; IT, rats) [µg/µL]	AIDS-like symptoms in addition to neurological deficit (rats; VIP 25 ug/5 ul (5 ug/ul) IT)	Effect on binding of gp120 [3]	Effect on HIV replication in cell culture (HIV)
COCCOC(=O)C1=C(C)NC(C)=C(C(=O)OC(C)C)C1c1cccc([N+](=O)[O-])c1 (stereo not shown) [nimodipine]	antagonize this effect									
Vasoactive Intestinal Peptide [VIP]		potently inhibit	4 of 6	3 of 5	morbidity was observed	diarrhea, weight loss, monoparesis, lower limb deficits and mucous secretions	2.55 to 12	diarrhea, hind limb rigidity and damage to spinal tissue	inhibit	inhibit

From patent US5641746A, “Animal model for AIDS” (Rutgers State University of New Jersey, priority 1994, dated 1997)
